What was measured:
Experiment in all cases: viability relative to DMSO control (fraction); higher = less drug effect (more viable cells)
Conditions in all cases: 48 h
Ribociclib = compound: CN(C)C(=O)c1cc2cnc(Nc3ccc(N4CCNCC4)cn3)nc2n1C1CCCC1 [Ribociclib]
In short: (§1)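 The cells were primary mononuclear tumour cells, either fresh or cryopreserved, isolated by Ficoll from blood or bone marrow or derived from processed lymph node. Each well of a 384-well plate received 4 × 10^4 cells onto compounds pre-plated at five concentrations, with one well per concentration. The medium was RPMI-1640 with penicillin/streptomycin, L-glutamine and human serum, and plates stood at 37 °C and 5% CO2 for 48 h. Viability is reported as CellTiter-Glo luminescence relative to the median of 16 inner DMSO wells.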

Birinapant = compound: CC[C@H](NC(=O)[C@H](C)NC)C(=O)N1C[C@@H](O)C[C@H]1Cc1c(-c2[nH]c3cc(F)ccc3c2C[C@@H]2C[C@H](O)CN2C(=O)[C@H](CC)NC(=O)[C@H](C)NC)[nH]c2cc(F)ccc12 [Birinapant]
In short: as §1

MLN-120B = compound: COc1c(Cl)cc2c([nH]c3cnccc32)c1NC(=O)c1cccnc1C [MLN-120B]
In short: as §1

ONO-4059 = compound: CC#CC(=O)N1CC[C@@H](n2c(=O)n(-c3ccc(Oc4ccccc4)cc3)c3c(N)ncnc32)C1 [ONO-4059]
In short: as §1

Imatinib = compound: Cc1ccc(NC(=O)c2ccc(CN3CCN(C)CC3)cc2)cc1Nc1nccc(-c2cccnc2)n1 [Imatinib]
In short: as §1

Nilotinib = compound: Cc1cn(-c2cc(NC(=O)c3ccc(C)c(Nc4nccc(-c5cccnc5)n4)c3)cc(C(F)(F)F)c2)cn1 [Nilotinib]
In short: as §1

Obatoclax mesylate = compound: COC1=CC(c2cc3ccccc3[nH]2)=N/C1=C\c1[nH]c(C)cc1C [Obatoclax mesylate]
In short: as §1

Tozasertib = compound: Cc1cc(Nc2cc(N3CCN(C)CC3)nc(Sc3ccc(NC(=O)C4CC4)cc3)n2)n[nH]1 [Tozasertib]
In short: as §1

ERK5-IN-1 = compound: CCOc1cc(C(=O)N2CCC(N3CCN(C)CC3)CC2)ccc1Nc1ncc2c(n1)N(C1CCCC1)c1ccccc1C(=O)N2C [ERK5-IN-1]
In short: as §1

Panobinostat = compound: Cc1[nH]c2ccccc2c1CCNCc1ccc(/C=C/C(=O)NO)cc1 [Panobinostat]
In short: as §1

Pralatrexate = compound: C#CCC(Cc1cnc2nc(N)nc(N)c2n1)c1ccc(C(=O)N[C@@H](CCC(=O)O)C(=O)O)cc1 [Pralatrexate]
In short: as §1

Vincristine = compound: CC[C@]1(O)C[C@H]2CN(CCc3c([nH]c4ccccc34)[C@@](C(=O)OC)(c3cc4c(cc3OC)N(C=O)[C@H]3[C@@](O)(C(=O)OC)[C@H](OC(C)=O)[C@]5(CC)C=CCN6CC[C@]43[C@@H]65)C2)C1 [Vincristine]
In short: as §1

TMP269 = compound: O=C(NCC1(c2nc(-c3ccccc3)cs2)CCOCC1)c1cccc(-c2noc(C(F)(F)F)n2)c1 [TMP269]
In short: as §1

Vorinostat = compound: O=C(CCCCCCC(=O)Nc1ccccc1)NO [Vorinostat]
In short: as §1

[1] = compound: CC(C)(C)OC(=O)Nc1ccc(-c2cc(C(=O)NCCCCCCC(=O)NO)no2)cc1
In short: as §1

BI6727 = compound: CC[C@@H]1C(=O)N(C)c2cnc(Nc3ccc(C(=O)N[C@H]4CC[C@H](N5CCN(CC6CC6)CC5)CC4)cc3OC)nc2N1C(C)C [BI6727]
In short: as §1

Vemurafenib = compound: CCCS(=O)(=O)Nc1ccc(F)c(C(=O)c2c[nH]c3ncc(-c4ccc(Cl)cc4)cc23)c1F [Vemurafenib]
In short: as §1

Pentostatin = compound: OC[C@H]1O[C@@H](n2cnc3c2N=CNC[C@H]3O)C[C@@H]1O [Pentostatin]
In short: as §1

Cladribine = compound: Nc1nc(Cl)nc2c1ncn2[C@H]1C[C@H](O)[C@@H](CO)O1 [Cladribine]
In short: as §1

AZD7762 = compound: NC(=O)Nc1cc(-c2cccc(F)c2)sc1C(=O)N[C@H]1CCCNC1 [AZD7762]
In short: as §1

## primary AML patient cells (S007)
Ribociclib; 0.024 µM
  viability: 0.949
Ribociclib; 0.12 µM
  viability: 0.904
Ribociclib; 0.6 µM
  viability: 0.766
Ribociclib; 3 µM
  viability: 0.308
Birinapant; 0.0008 µM
  viability: 0.866
Birinapant; 0.004 µM
  viability: 0.744
Birinapant; 0.02 µM
  viability: 0.573
Birinapant; 0.1 µM
  viability: 0.384
Birinapant; 0.5 µM
  viability: 0.321
MLN-120B; 0.024 µM
  viability: 0.816
MLN-120B; 0.12 µM
  viability: 0.781
MLN-120B; 0.6 µM
  viability: 0.728
MLN-120B; 3 µM
  viability: 0.605
MLN-120B; 15 µM
  viability: 0.375
ONO-4059; 0.0016 µM
  viability: 0.967
ONO-4059; 0.008 µM
  viability: 0.928
ONO-4059; 0.04 µM
  viability: 0.962
ONO-4059; 0.2 µM
  viability: 1.03
ONO-4059; 1 µM
  viability: 0.804
Imatinib; 0.016 µM
  viability: 1.16
Imatinib; 0.08 µM
  viability: 0.987
Imatinib; 0.4 µM
  viability: 1.08
Imatinib; 2 µM
  viability: 0.765
Imatinib; 10 µM
  viability: 0.319
Nilotinib; 0.016 µM
  viability: 1.19
Nilotinib; 0.08 µM
  viability: 1.23
Nilotinib; 0.4 µM
  viability: 1.24
Nilotinib; 2 µM
  viability: 1.04
Nilotinib; 10 µM
  viability: 1.31
Obatoclax mesylate; 0.024 µM
  viability: 0.717
Obatoclax mesylate; 0.12 µM
  viability: 0.684
Obatoclax mesylate; 0.6 µM
  viability: 0.659
Obatoclax mesylate; 3 µM
  viability: 0.254
Obatoclax mesylate; 15 µM
  viability: 0.0248

## primary AML patient cells (S027)
Ribociclib; 0.024 µM
  viability: 1.02
Ribociclib; 0.12 µM
  viability: 1.03
Ribociclib; 0.6 µM
  viability: 1.03
Ribociclib; 3 µM
  viability: 0.938
Ribociclib; 15 µM
  viability: 0.832
ONO-4059; 0.0016 µM
  viability: 0.958
ONO-4059; 0.008 µM
  viability: 1.06
ONO-4059; 0.04 µM
  viability: 0.945
ONO-4059; 0.2 µM
  viability: 0.943
ONO-4059; 1 µM
  viability: 1.01
Tozasertib; 0.024 µM
  viability: 1.01
Tozasertib; 0.12 µM
  viability: 0.906
Tozasertib; 0.6 µM
  viability: 0.93
Tozasertib; 3 µM
  viability: 0.881
Imatinib; 0.016 µM
  viability: 1.17
Imatinib; 0.08 µM
  viability: 1.17
Imatinib; 0.4 µM
  viability: 1.18
Imatinib; 10 µM
  viability: 1.05

## primary AML patient cells (S044)
Imatinib; 0.08 µM
  viability: 1.06
Imatinib; 0.4 µM
  viability: 1
Imatinib; 2 µM
  viability: 0.924
Imatinib; 10 µM
  viability: 0.823

## primary AML patient cells (S054)
Imatinib; 0.016 µM
  viability: 1.05
Imatinib; 0.08 µM
  viability: 1.05
Imatinib; 0.4 µM
  viability: 1
Imatinib; 2 µM
  viability: 0.962
Imatinib; 10 µM
  viability: 0.807

## primary DLBCL patient cells (S049)
ERK5-IN-1; 0.024 µM
  viability: 1.04
ERK5-IN-1; 0.12 µM
  viability: 1.04
ERK5-IN-1; 0.6 µM
  viability: 0.717
ERK5-IN-1; 3 µM
  viability: 0.177
ERK5-IN-1; 15 µM
  viability: 0.045
Ribociclib; 0.024 µM
  viability: 1
Ribociclib; 0.12 µM
  viability: 1.02
Ribociclib; 0.6 µM
  viability: 0.976
Ribociclib; 3 µM
  viability: 0.752
Ribociclib; 15 µM
  viability: 0.29
Panobinostat; 0.00064 µM
  viability: 1.09
Panobinostat; 0.0032 µM
  viability: 0.896
Panobinostat; 0.016 µM
  viability: 0.0566
Panobinostat; 0.08 µM
  viability: 0.0257
Panobinostat; 0.4 µM
  viability: 0.0265
Pralatrexate; 0.024 µM
  viability: 1.02
Pralatrexate; 0.12 µM
  viability: 0.803
Pralatrexate; 0.6 µM
  viability: 0.897
Pralatrexate; 3 µM
  viability: 0.899
Pralatrexate; 15 µM
  viability: 0.928
Vincristine; 0.016 µM
  viability: 0.123
Vincristine; 0.08 µM
  viability: 0.101
Vincristine; 0.4 µM
  viability: 0.104
Vincristine; 2 µM
  viability: 0.132
Vincristine; 10 µM
  viability: 0.121
TMP269; 0.024 µM
  viability: 1.03
TMP269; 0.12 µM
  viability: 1.08
TMP269; 0.6 µM
  viability: 1.1
TMP269; 3 µM
  viability: 1.01
TMP269; 15 µM
  viability: 0.961
Vorinostat; 0.016 µM
  viability: 0.996
Vorinostat; 0.08 µM
  viability: 0.899
Vorinostat; 0.4 µM
  viability: 0.797
Vorinostat; 2 µM
  viability: 0.0724
Vorinostat; 10 µM
  viability: 0.0247
[1]; 0.024 µM
  viability: 0.925
[1]; 0.12 µM
  viability: 0.678
[1]; 0.6 µM
  viability: 0.327
[1]; 3 µM
  viability: 0.0379
[1]; 15 µM
  viability: 0.0222
MLN-120B; 0.024 µM
  viability: 0.954
MLN-120B; 0.12 µM
  viability: 0.902
MLN-120B; 0.6 µM
  viability: 0.946
MLN-120B; 3 µM
  viability: 0.868
MLN-120B; 15 µM
  viability: 0.741
BI6727; 0.024 µM
  viability: 0.902
BI6727; 0.12 µM
  viability: 0.898
BI6727; 0.6 µM
  viability: 0.711
BI6727; 3 µM
  viability: 0.228
BI6727; 15 µM
  viability: 0.0414
ONO-4059; 0.0016 µM
  viability: 0.823
ONO-4059; 0.008 µM
  viability: 0.761
ONO-4059; 0.04 µM
  viability: 0.687
ONO-4059; 0.2 µM
  viability: 0.716
ONO-4059; 1 µM
  viability: 0.649
Vemurafenib; 0.024 µM
  viability: 0.847
Vemurafenib; 0.12 µM
  viability: 0.935
Vemurafenib; 0.6 µM
  viability: 0.934
Vemurafenib; 3 µM
  viability: 0.957
Vemurafenib; 15 µM
  viability: 0.911
Pentostatin; 0.03 µM
  viability: 1.09
Pentostatin; 0.15 µM
  viability: 0.953
Pentostatin; 0.75 µM
  viability: 1.02
Pentostatin; 3.75 µM
  viability: 0.907
Pentostatin; 18.76 µM
  viability: 0.839
Cladribine; 0.024 µM
  viability: 0.918
Cladribine; 0.12 µM
  viability: 0.853
Cladribine; 0.6 µM
  viability: 0.512
Cladribine; 3 µM
  viability: 0.399
Cladribine; 15 µM
  viability: 0.305
Obatoclax mesylate; 0.024 µM
  viability: 0.827
Obatoclax mesylate; 0.12 µM
  viability: 0.773
Obatoclax mesylate; 0.6 µM
  viability: 0.538
Obatoclax mesylate; 3 µM
  viability: 0.343
Obatoclax mesylate; 15 µM
  viability: 0.0387
AZD7762; 0.024 µM
  viability: 0.697
AZD7762; 0.12 µM
  viability: 0.337
AZD7762; 0.6 µM
  viability: 0.277
AZD7762; 3 µM
  viability: 0.344
AZD7762; 15 µM
  viability: 0.163
